Measured values as given in US20210260225A1, “PROTECTION OF BIOLOGICALLY ACTIVE MOLECULES DURING RADIATION STERILIZATION” (Qiagen Sciences LLC, priority 2018, published 2021).

Columns and labels:
whole blood samples [1] = assay: Mitogenic potency of spray-dried PHA in QuantiFERON Mitogen Control blood collection tubes after radiation sterilization (IFN-γ by QuantiFERON ELISA); assay type: cell-based, human; settings: for PHA mitogenic response, % of control (FIG. 2): control: no radioprotectant, no sterilization, 8 donors
whole blood samples [2] = assay: Mitogenic activity of PHA-P formulation with radioprotectant additives, with or without E-Beam (IFN-γ secretion, QuantiFERON ELISA); assay type: cell-based, human; settings: for Group Mean Percentage of Mitogenic Activity: additive 5.0 mM, vs untreated control without additives; for Group Mean Percentage of Mitogenic Activity / Concentration-dependent protection of PHA-P mitogenic activity (FIG. 1) / PHA-P Formulation Potency with Additives: 6 donors; for Concentration-dependent protection of PHA-P mitogenic activity (FIG. 1): E-beam 25 kGy in solution, cysteine 1.0-50 mM, melatonin 0.2-10 mM; for PHA-P Formulation Potency with Additives: no irradiation, vs same formulation without additives (100%); for PHA mitogenic activity, % of PHA control formulation (FIG. 1): E-Beam 25 kGy, control without additive and without sterilization
Description: Cysteine (closed circles) and melatonin (open circles) were dissolved in the same PHA-P formulation to various final concentrations. The mitogenic activities were determined by measuring IFN-γ secretion in whole blood samples from six blood donors using QuantiFERON® ELISA according to the manufacturer's instructions (QIAGEN, Inc., Germantown, Md.). Group mean percentages of mitogenic activity over controls (PHA-P alone without any additives) are presented.
L-cysteine was dissolved in a PHA-P formulation to 1.0-50 mM. Due to its lower water solubility, melatonin stock solution at 200 mM was first prepared in 100% ethyl alcohol. The stocks were then added into the PHA-P formulation to make final concentrations from 0.2-10 mM. After the E-Beam treatment, potencies of PHA-P formulations were tested with whole blood samples and mitogenic activity was determined using QuantiFERON® ELISA (QIAGEN, Inc., Germantown, Md.) according to the manufacturer's instructions.

whole blood samples [3] = assay: as above; assay type: cell-based, human; settings: E-Beam 0.0 kGy; additive 5.0 mM; vs untreated control without additives; 6 donors
whole blood samples [4] = assay: Storage stability of mitogenic activity of radiation sterilized spray-dried PHA tubes with or without cysteine; assay type: cell-based, human; settings: 5.0 mM cysteine; E-Beam sterilized; subsequent time points extending beyond eight months post-production
Description: QuantiFERON® Mitogen Control blood collection tubes were produced with and without cysteine (5.0 mM final concentration in liquid mitogen formulation) and sterilized with E-Beam radiation. Mitogen tubes' biological (mitogenic) activities were tested over time and are presented as % potency differences of the activity of mitogen tubes formulated with cysteine compared to mitogen tubes formulated without cysteine. Each dot in the figure represents the % activity of group mean at each time point.
Mitogen (spray-dried PHA) tubes were produced and radiation sterilized as described in Example 1, comparing PHA preparations without added cysteine to PHA preparations containing 5.0 mM cysteine. The long-term storage stability of the radioprotective effect of cysteine on the mitogenic activity of spray-dried PHA was also assessed.
Following spray-drying and radiation sterilization the tubes were held for various time periods before being tested for mitogenic activity as described previously.

[5] = tested on: T-cells present in a whole human blood sample; assay: Anti-CD3 antibody T-cell stimulatory activity after E-beam irradiation (IFN-γ secretion in whole blood, ELISA); assay type: cell-based; settings: for Protection of anti-CD3 antibody stimulatory activity against E-beam (FIG. 4): 10 mM Cys or 3.0 mM G-SH in DPBS, E-beam doses up to 25 kGy; for Protective effect on anti-CD3 activity, titration of radioprotectant (FIG. 5): 25 kGy E-beam, radioprotectant 1.0 to 10 mM
Description: Anti-CD3 antibody samples were dissolved in Dulbecco's phosphate-buffered saline (DPBS) and diluted to a concentration of 66.7 μg/mL, then exposed to various doses of E-beam irradiation in the presence or absence of 10 mM cysteine (Cys) or 3 mM glutathione (G-SH). The treated antibody samples were tested for their T-cell stimulatory activity by determining their ability to induce interferon-gamma (IFNγ) secretion by T-cells present in a whole human blood sample obtained from a group of six randomly selected donors, using 0.10 μg of anti-CD3 antibody per mL of whole blood in QuantiFERON® (QFN) Nil tubes (QIAGEN, Inc., Germantown, Md.). Following the incubation of the whole blood samples with the anti-CD3 antibody in the QFN Nil tubes, blood processing, plasma harvesting and IFN-γ detection by enzyme-linked immunosorbent assay (ELISA) were performed according to the manufacturer's instructions as found in the QuantiFERON®-TB Gold Plus package insert (QFN-TB Gold Plus, QIAGEN, Inc., Germantown, Md.) except that the plasma samples were diluted 1 to 10 in ELISA kit Green Diluent immediately before testing on 8-point standard curves.

[6] = tested on: white blood cells present in human whole blood samples; assay: R848 TLR agonist (NK cell stimulatory) activity after E-beam irradiation (IFN-γ release in whole blood, ELISA); assay type: cell-based; settings: for Protection of R848 stimulatory activity against E-beam (FIG. 6): 10 mM Cys or 3.0 mM G-SH, E-beam treated; for Protective effect on R848 activity, titration of radioprotectant (FIG. 7): 25 kGy E-beam, radioprotectant 1.0 to 10 mM
Description: R848 (resiquimod, CAS 144875-48-9) is a toll-like receptor (TLR) agonist which can stimulate biological responses by natural killer (NK) cells, and its activity can be measured in the […] tubes (QIAGEN, Inc., Germantown, Md.) QFN whole blood culture system. […] Following incubation with the R848 samples in the QFN tubes, whole blood sample processing, plasma harvesting and IFN-γ ELISA were performed according to the QuantiFERON®-TB Gold Plus package insert (QFN-TB Gold Plus, QIAGEN, Inc., Germantown, Md.) except that the plasma samples were diluted 1:10 in ELISA kit Green Diluent immediately before testing on 8-point standard curves.

[7] = tested on: white blood cells present in human whole blood samples; assay: QFM (anti-CD3 + R848) stimulatory activity after E-beam irradiation (IFN-γ release in whole blood, ELISA); assay type: cell-based; settings: for Protection of stimulatory activities of anti-CD3 and R848 against E-beam (FIG. 8): 10 mM Cys or 3.0 mM G-SH, E-beam irradiated; for Protective effect on combined anti-CD3 and R848 activity, titration of radioprotectant (FIG. 9): 25 kGy E-beam, radioprotectant 1.0 to 10 mM
Description: Following incubation with the QFM samples in the QFN tubes, whole blood sample processing, plasma harvesting and IFN-γ ELISA were performed according to the QuantiFERON®-TB Gold Plus package insert (QFN-TB Gold Plus, QIAGEN, Inc., Germantown, Md.) except that the plasma samples were diluted 1:10 in ELISA kit Green Diluent immediately before testing on 8-point standard curves.

[8] = tested on: white blood cells present in human whole blood samples; assay: Pokeweed mitogen activity after E-beam irradiation (IFN-γ release in whole blood, ELISA); assay type: cell-based; settings: for Protection of PWM stimulatory activity against E-beam (FIG. 10): 10 mM Cys or 3.0 mM G-SH, E-beam irradiated; for Protective effect on PWM activity, titration of radioprotectant (FIG. 11): 25 kGy E-beam, radioprotectant 1.0 to 10 mM
Description: Pokeweed Mitogen (PWM) samples were dissolved in DPBS at a concentration of 33.3 μg/mL and treated with various doses of E-beam irradiation in the presence or absence of 10 mM cysteine (Cys) or 3 mM glutathione (G-SH). The treated PWM samples were tested for their biological activity (ability to elicit IFNγ release during an in vitro incubation) on white blood cells present in human whole blood samples, collected from a group of six randomly selected donors, using 1.0 μg of PWM per mL of whole blood in QFN Nil tubes. Following incubation with the PWM samples in the QFN tubes, whole blood sample processing, plasma harvesting and IFN-γ ELISA were performed according to the QuantiFERON®-TB Gold Plus package insert (QFN-TB Gold Plus, QIAGEN, Inc., Germantown, Md.) except that the plasma samples were diluted 1:10 in ELISA kit Green Diluent immediately before testing on 8-point standard curves.

[9] = tested on: white blood cells present in human whole blood samples; assay: Concanavalin A activity after E-beam irradiation (IFN-γ release in whole blood, ELISA); assay type: cell-based; settings: for Protection of ConA stimulatory activity against E-beam (FIG. 12): 10 mM Cys or 3.0 mM G-SH, E-beam irradiated; for Protective effect on ConA activity, titration of radioprotectant (FIG. 13): 25 kGy E-beam, radioprotectant 1.0 to 10 mM
[10] = spray-dried tubes after radiation sterilization, cysteine 5 mM where present

Compound | PHA mitogenic response, % of control (FIG. 2) (whole blood samples [1]; [10]) | Group Mean Percentage of Mitogenic Activity (whole blood samples [2]; E-Beam 8.30 kGy) | Group Mean Percentage of Mitogenic Activity (whole blood samples [2]; E-Beam 16.7 kGy) | Group Mean Percentage of Mitogenic Activity (whole blood samples [2]; E-Beam 25.0 kGy) | Concentration-dependent protection of PHA-P mitogenic activity (FIG. 1) (whole blood samples [2]) | Group Mean Percentage of Mitogenic Activity (whole blood samples [3]) | Protection of anti-CD3 antibody stimulatory activity against E-beam (FIG. 4) [5] | Protective effect on anti-CD3 activity, titration of radioprotectant (FIG. 5) [5] | Protection of R848 stimulatory activity against E-beam (FIG. 6) [6] | Protective effect on R848 activity, titration of radioprotectant (FIG. 7) [6] | Protection of stimulatory activities of anti-CD3 and R848 against E-beam (FIG. 8) [7] | Protective effect on combined anti-CD3 and R848 activity, titration of radioprotectant (FIG. 9) [7] | Protection of PWM stimulatory activity against E-beam (FIG. 10) [8] | Protective effect on PWM activity, titration of radioprotectant (FIG. 11) [8] | Protection of ConA stimulatory activity against E-beam (FIG. 12) [9] | Protective effect on ConA activity, titration of radioprotectant (FIG. 13) [9] | also measured
phytohemagglutinin [PHA] | 56% | – | – | – | – | – | – | – | – | – | – | – | – | – | – | – | Mitogenic Potency after Tx, E-Beam (whole blood samples [1]; E-beam 16.6-30 kGy, group mean of 11 donors vs same lot of tubes without treatment (100%)): about 55%
COc1ccc2[nH]cc(CCNC(C)=O)c2c1 [Melatonin, N-acetyl-5-methoxy tryptamine, reference compound] | – | 53% | 26% | 7.7% | dose dependent protection | 111% | – | – | – | – | – | – | – | – | – | – | Group Mean Percentage of Mitogenic Activity (whole blood samples [2]; E-Beam 8.30 kGy, listed as melatonin): 53%; PHA-P Formulation Potency with Additives (whole blood samples [2]; additive 10 mM): 98.6%; PHA-P Formulation Potency with Additives (whole blood samples [2]; additive 10 mM, listed as melatonin): comparable to unsupplemented PHA preparations
N[C@@H](CS)C(=O)O [L-Cysteine, 2-amino-3-sulfhydrylpropanoic acid] | 72% | 68% | 43% | 26% | dose dependent protection | 99% | – | – | – | – | – | – | – | – | – | – | PHA mitogenic response, % of control (FIG. 2) (whole blood samples [1]; spray-dried tubes, cysteine 5 mM, no radiation sterilization): 94.8%; Group Mean Percentage of Mitogenic Activity (whole blood samples [2]; E-Beam 8.30 kGy, listed as L-cysteine): 68%; PHA mitogenic activity, % of PHA control formulation (FIG. 1) (whole blood samples [2]; additive 1.0 mM): 5.9%; PHA mitogenic activity, % of PHA control formulation (FIG. 1) (whole blood samples [2]; additive 10 mM): 38%; PHA-P Formulation Potency with Additives (whole blood samples [2]; additive 50 mM): 101%; PHA-P Formulation Potency with Additives (whole blood samples [2]; additive 50 mM, listed as cysteine): comparable to unsupplemented PHA preparations; Mitogenic activity of tubes with cysteine compared to tubes without cysteine (FIG. 3) (whole blood samples [4]): retained relatively higher levels of mitogenic activity
N[C@@H](CS)C(=O)O (stereo in doubt) [L-Cysteine, 2-amino-3-sulfhydrylpropanoic acid] | – | – | – | – | – | – | maintained stimulatory activities | dose-dependent increase | retained the stimulatory activities | dose-dependent increase | preserved | dose-dependent increase | preserved | dose-dependent increase | preserved | dose-dependent increase | –
N[C@@H](CCC(=O)N[C@@H](CS)C(=O)NCC(=O)O)C(=O)O [Glutathione Reduced, γ-L-Glutamyl-L-cysteinylglycine] | – | 53% | 23% | 10% | – | 116% | maintained stimulatory activities | dose-dependent increase | retained the stimulatory activities | dose-dependent increase | preserved | dose-dependent increase | preserved | dose-dependent increase | preserved | dose-dependent increase | Group Mean Percentage of Mitogenic Activity (whole blood samples [2]; E-Beam 8.30 kGy, listed as reduced glutathione): 53%
